# What was measured:
# [1] = test system: A549; test: Cytotoxicity against human A549 cells incubated for 24 hrs by MTT assay; type: functional, cell-based; settings: A549, 24 h
# [2] = test system: MDA-MB-231; test: Cytotoxicity against human MDA-MB-231 cells incubated for 24 hrs by MTT assay; type: functional, cell-based; settings: MDA-MB-231, 24 h
# [3] = test system: Leishmania major; test: Antileishmanial activity against Leishmania major at 100 uM incubated for 72 hrs by MTT assay relative to control; type: functional
# [4] = test system: Leishmania major; test: Antileishmanial activity against Leishmania major at 1 uM incubated for 72 hrs by MTT assay relative to control; type: functional
# [5] = test system: Leishmania major; test: Antileishmanial activity against Leishmania major at 0.1 uM incubated for 72 hrs by MTT assay relative to control; type: functional
# [6] = test system: Leishmania major; test: Antileishmanial activity against Leishmania major at 10 uM incubated for 72 hrs by MTT assay relative to control; type: functional
# [7] = Inhibition of Saccharomyces cerevisiae alpha-glucosidase using p-nitrophenyl-alpha-D-glucopyranoside as substrate preincubated for 10 mins followed by substrate addition and measured after 30 mins by spectrophotometric analysis
# [8] = test system: Candida albicans; test: Antifungal activity against Candida albicans MTCC 227 by agar dilution method; type: functional
# [9] = test system: Pseudomonas aeruginosa; test: Antibacterial activity against Pseudomonas aeruginosa MTCC 1688 by agar dilution method; type: functional
# [10] = test system: Aspergillus niger; test: Antifungal activity against Aspergillus niger MTCC 282 by agar dilution method; type: functional
# [11] = test system: Escherichia coli; test: Antibacterial activity against Escherichia coli MTCC 443 by agar dilution method; type: functional
# [12] = test system: Staphylococcus aureus; test: Antibacterial activity against Staphylococcus aureus MTCC 96 by agar dilution method; type: functional
# [13] = test system: Aspergillus clavatus; test: Antifungal activity against Aspergillus clavatus MTCC 1323 by agar dilution method; type: functional
# [14] = test system: Vero; test: Cytotoxicity against African green monkey Vero cells after 48 hrs by MTT assay; type: cell-based; settings: Chlorocebus sabaeus
# [15] = Inhibition of calf ALR2 using DL-glyceraldehyde as substrate preincubated for 5 mins followed by NADPH addition and measured after 10 mins by spectrophotometric analysis; set-up: species or system Bos taurus
# [16] = Inhibition of bovine kidney ALR1 using sodium D-glucoronic acid as substrate preincubated for 5 mins followed by NADPH addition and measured after 10 mins by spectrophotometric analysis; set-up: species or system Bos taurus
# [17] = test system: Staphylococcus aureus; test: Antimicrobial activity against Staphylococcus aureus incubated for 16 hrs by agar-well diffusion method; type: functional
# [18] = Antioxidant activity assessed as ABTS radical cation scavenging ability
# [19] = Antioxidant activity assessed as superoxide anion radical scavenging activity by cyclic voltammetric analysis; type: functional
# [20] = test system: Rattus norvegicus; test: Antiinflammatory activity in Wistar rat assessed as reduction in formalin-induced paw edema volume at 20 mg/kg, po administered 1 hr prior to formalin challenge and measured over 0 to 6 hrs post formalin challenge by plethysmography relative to control; type: functional
# [21] = test system: A498; test: Growth inhibition of human A498 cells at 10 uM after 48 hrs by SRB assay relative to control; type: functional; settings: A498, 48 h, read-out: GI
# [22] = test system: Spermatozoa; test: Spermicidal activity against human spermatozoa shaken for 10 secs by phase contrast microscopy; type: functional, cell-based
# [23] = test system: Trichomonas vaginalis; test: Trichomonacidal against metronidazole-susceptible Trichomonas vaginalis after 48 hrs by trypan blue exclusion assay; type: functional, organism-based
# [24] = test system: HeLa; test: Cytotoxicity against human HeLa cells after 24 hrs by MTT assay; type: cell-based
# [25] = test system: Lactobacillus jensenii; test: Inhibition of Lactobacillus jensenii ATCC 25258 assessed as reduction in number of cells by measuring turbidity after 24 hrs; type: organism-based; settings: ATCC 25258, 24 h
# [26] = Growth inhibition of BHK21 cells at 100 uM incubated for 48 hrs by SRB assay relative to control; type: cell-based, Mesocricetus auratus, BHK-21; settings: hamster, read-out: GI
# [27] = Growth inhibition of BHK21 cells at 10 uM incubated for 48 hrs by SRB assay relative to control; type: cell-based, Mesocricetus auratus, BHK-21; settings: hamster, read-out: GI
# [28] = Growth inhibition of BHK21 cells at 0.1 uM incubated for 48 hrs by SRB assay relative to control; type: cell-based, Mesocricetus auratus, BHK-21; settings: hamster, read-out: GI
# [29] = Growth inhibition of BHK21 cells at 1 uM incubated for 48 hrs by SRB assay relative to control; type: cell-based, Mesocricetus auratus, BHK-21; settings: hamster, read-out: GI
# [30] = Inhibition of rat intestinal maltase-glucoamylase using p-nitrophenyl alpha-D-glucoside as substrate preincubated for 5 mins followed by substrate addition and measured after 30 mins by spectrophotometric analysis
# [31] = Inhibition of calf intestinal alkaline phosphatase using p-nitrophenyl phosphate as substrate preincubated for 10 mins followed by substrate addition and measured after 30 mins by spectrometry based assay; set-up: species or system Bos taurus
# [32] = molecular target: Cholinesterase (Homo sapiens, UniProt P06276); test: Inhibition of human plasma BuChE using butyrylthiocholine iodide as substrate preincubated for 5 mins followed by substrate addition and measured at 2 mins interval by Ellman's method
# Chain of Cholinesterase (P06276 whole entry): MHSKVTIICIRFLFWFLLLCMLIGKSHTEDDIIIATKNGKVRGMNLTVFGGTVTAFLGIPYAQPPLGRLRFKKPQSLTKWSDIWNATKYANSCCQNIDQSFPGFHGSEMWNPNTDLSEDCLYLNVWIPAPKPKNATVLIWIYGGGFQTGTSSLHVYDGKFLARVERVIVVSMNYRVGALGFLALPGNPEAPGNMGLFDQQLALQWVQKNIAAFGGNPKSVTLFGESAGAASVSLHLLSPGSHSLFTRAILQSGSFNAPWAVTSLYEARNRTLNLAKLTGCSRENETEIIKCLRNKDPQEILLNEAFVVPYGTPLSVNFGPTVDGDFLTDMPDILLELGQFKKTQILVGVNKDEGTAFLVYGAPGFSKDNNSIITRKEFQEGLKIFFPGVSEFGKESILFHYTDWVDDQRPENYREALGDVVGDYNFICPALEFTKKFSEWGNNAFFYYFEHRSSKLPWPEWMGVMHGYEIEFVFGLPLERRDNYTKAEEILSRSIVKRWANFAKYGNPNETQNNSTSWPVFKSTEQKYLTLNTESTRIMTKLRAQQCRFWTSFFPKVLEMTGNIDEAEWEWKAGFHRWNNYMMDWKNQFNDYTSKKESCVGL
# [33] = molecular target: Alpha glucosidase (Homo sapiens, UniProt O43451+P10253+P14410+Q2M2H8); test: Inhibition of alpha-glucosidase (unknown origin) using p-NPG as substrate preincubated for 5 mins followed by substrate addition and measured after 30 mins by spectrophotometric analysis; type: protein assay
# [34] = test system: MCF7; test: Growth inhibition of human MCF7 cells by SRB assay; type: functional
# [35] = test system: MDA-MB-435; test: Growth inhibition of human MDA-MB-435 cells by SRB assay; type: functional
# [36] = test system: Rattus norvegicus; test: Antitumor activity against NMU challenged Sprague-Dawley rat assessed as tumor volume at 5 mg/kg, po administered once per day for 6 weeks via gavage followed by NMU post challenge for 2 weeks (reference value: 4.8 +/- 0.14 mm3); type: functional
# [37] = test system: NCI-H157; test: Growth inhibition of human NCI-H157 cells at 0.1 uM incubated for 48 hrs by SRB assay relative to control; type: functional; settings: NCI-H157, 48 h, read-out: GI
# [38] = test system: NCI-H157; test: Growth inhibition of human NCI-H157 cells at 1 uM incubated for 48 hrs by SRB assay relative to control; type: functional; settings: NCI-H157, 48 h, read-out: GI
# [39] = test system: NCI-H157; test: Growth inhibition of human NCI-H157 cells at 100 uM incubated for 48 hrs by SRB assay relative to control; type: functional; settings: NCI-H157, 48 h, read-out: GI
# [40] = test system: NCI-H157; test: Growth inhibition of human NCI-H157 cells at 10 uM incubated for 48 hrs by SRB assay relative to control; type: functional; settings: NCI-H157, 48 h, read-out: GI
# [41] = test system: HOP-92; test: Growth inhibition of human HOP92 cells at 10 uM after 48 hrs by SRB assay relative to control; type: functional; settings: HOP-92, 48 h, read-out: GI
# [42] = molecular target: Amyloid-beta precursor protein (Homo sapiens) (UniProt P05067); test: Inhibition of amyloid beta (1 to 40) (unknown origin) aggregation at 1 uM incubated for 1 hr by thioflavin T fluorescence spectroscopic method relative to control
# Chain of Amyloid-beta precursor protein (Homo sapiens) (P05067 whole entry): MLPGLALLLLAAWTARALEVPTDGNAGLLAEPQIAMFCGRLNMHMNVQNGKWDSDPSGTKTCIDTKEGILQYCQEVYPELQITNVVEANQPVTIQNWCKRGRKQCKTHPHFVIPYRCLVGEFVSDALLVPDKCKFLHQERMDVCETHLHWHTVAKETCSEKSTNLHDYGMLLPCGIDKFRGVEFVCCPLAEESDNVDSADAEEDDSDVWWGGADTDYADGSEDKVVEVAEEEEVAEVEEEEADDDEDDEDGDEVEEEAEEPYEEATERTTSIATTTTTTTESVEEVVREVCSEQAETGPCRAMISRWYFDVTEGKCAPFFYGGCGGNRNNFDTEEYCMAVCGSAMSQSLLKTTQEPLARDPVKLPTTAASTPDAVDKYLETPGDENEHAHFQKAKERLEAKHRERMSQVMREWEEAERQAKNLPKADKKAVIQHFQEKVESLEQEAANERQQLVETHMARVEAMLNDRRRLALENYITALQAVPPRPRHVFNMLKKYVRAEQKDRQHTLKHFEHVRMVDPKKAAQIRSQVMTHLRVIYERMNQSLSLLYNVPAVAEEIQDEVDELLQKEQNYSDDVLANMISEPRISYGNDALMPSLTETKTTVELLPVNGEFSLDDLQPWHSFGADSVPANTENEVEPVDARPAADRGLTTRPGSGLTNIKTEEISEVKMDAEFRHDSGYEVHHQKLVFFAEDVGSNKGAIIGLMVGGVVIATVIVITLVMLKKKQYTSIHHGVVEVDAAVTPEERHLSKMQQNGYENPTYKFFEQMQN
# [43] = molecular target: Acetylcholinesterase (Homo sapiens, UniProt P22303); test: Inhibition of human recombinant AchE using acetylthiocholine iodide as substrate preincubated for 5 mins followed by substrate addition and measured at 2 mins interval by Ellman's method
# Chain of Acetylcholinesterase (P22303 whole entry): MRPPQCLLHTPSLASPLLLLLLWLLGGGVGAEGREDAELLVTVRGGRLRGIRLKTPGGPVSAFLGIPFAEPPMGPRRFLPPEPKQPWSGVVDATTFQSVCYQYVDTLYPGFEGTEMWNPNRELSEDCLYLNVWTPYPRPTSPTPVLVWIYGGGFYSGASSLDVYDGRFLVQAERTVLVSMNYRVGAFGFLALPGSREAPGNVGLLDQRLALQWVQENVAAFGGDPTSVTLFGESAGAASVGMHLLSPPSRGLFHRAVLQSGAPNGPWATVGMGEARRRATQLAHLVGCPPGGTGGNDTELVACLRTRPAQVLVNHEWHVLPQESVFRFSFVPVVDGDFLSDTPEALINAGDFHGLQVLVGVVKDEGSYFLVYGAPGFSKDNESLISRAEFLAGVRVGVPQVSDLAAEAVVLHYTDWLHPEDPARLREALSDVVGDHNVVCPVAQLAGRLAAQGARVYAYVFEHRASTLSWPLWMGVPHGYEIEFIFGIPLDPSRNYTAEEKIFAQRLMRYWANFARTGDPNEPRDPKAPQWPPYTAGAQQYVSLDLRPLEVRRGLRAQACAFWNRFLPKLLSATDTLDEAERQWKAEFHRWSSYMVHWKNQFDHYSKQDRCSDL
# [44] = molecular target: Urease (Canavalia ensiformis, UniProt P07374); test: Inhibition of jack bean urease incubated for 30 mins by indophenol method
# Chain of Urease (P07374 whole entry): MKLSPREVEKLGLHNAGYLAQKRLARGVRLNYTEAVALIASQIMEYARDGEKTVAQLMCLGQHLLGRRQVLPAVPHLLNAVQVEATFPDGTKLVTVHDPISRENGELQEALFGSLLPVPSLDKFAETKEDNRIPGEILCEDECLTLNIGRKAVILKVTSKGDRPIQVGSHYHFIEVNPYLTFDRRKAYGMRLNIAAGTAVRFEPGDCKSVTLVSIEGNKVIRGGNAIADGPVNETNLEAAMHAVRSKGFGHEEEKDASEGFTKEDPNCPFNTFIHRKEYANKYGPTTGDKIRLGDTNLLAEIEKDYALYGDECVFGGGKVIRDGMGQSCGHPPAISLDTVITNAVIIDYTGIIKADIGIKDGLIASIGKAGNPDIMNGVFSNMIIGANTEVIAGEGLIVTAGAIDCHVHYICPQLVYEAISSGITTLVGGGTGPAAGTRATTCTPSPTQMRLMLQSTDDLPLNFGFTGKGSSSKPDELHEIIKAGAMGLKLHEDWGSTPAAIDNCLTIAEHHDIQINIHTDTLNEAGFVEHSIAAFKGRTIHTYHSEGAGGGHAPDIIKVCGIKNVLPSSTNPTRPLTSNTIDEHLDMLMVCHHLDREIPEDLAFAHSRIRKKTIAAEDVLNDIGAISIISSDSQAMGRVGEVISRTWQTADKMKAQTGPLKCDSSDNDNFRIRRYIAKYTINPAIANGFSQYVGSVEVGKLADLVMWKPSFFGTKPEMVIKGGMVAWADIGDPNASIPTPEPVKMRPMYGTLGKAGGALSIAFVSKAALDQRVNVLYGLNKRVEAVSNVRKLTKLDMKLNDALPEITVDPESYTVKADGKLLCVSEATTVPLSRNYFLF
smiles,measurement,setting,value
O=c1oc2ccccc2cc1-c1cc(-c2ccc(Cl)cc2)nc(Cc2ccc(F)cc2)n1,IC50,[1],2150 nM
same,IC50,[2],16500 nM
Cc1cccc(-n2c(-c3cc4ccccc4oc3=O)cs/c2=N/NC(=O)c2cc3ccccc3oc2=O)c1C,inhibition at 100 µM,[3],70.4%
same,inhibition at 1 µM,[4],60.7%
same,inhibition at 0.1 µM,[5],53.9%
same,inhibition at 10 µM,[6],66.2%
O=C(N/N=C/c1cc(Cl)cc(Cl)c1O)c1nc(-c2cc3ccccc3oc2=O)cs1,IC50,[7],6240 nM
C/C(=N\NC(=S)Nc1ccc(F)cc1F)c1cc2ccccc2oc1=O,MIC,[8],100 µg/mL
same,MIC,[9],100 µg/mL
same,MIC,[10],100 µg/mL
same,MIC,[11],50 µg/mL
same,MIC,[12],50 µg/mL
same,MIC,[13],100 µg/mL
O=Cc1c(-c2cc3cc(Br)ccc3oc2=O)[nH]c2ccccc12,IC50,[14],100000 nM
C/C(=N\Nc1nc(-c2cc3ccccc3oc2=O)cs1)c1ccccc1,IC50,[15],120 nM
same,IC50,[16],2940 nM
O=C(O)c1cn(C2CC2)c2cc(N3CCNCC3)c(F)cc2c1=O [CIPROFLOXACIN],MIC,[17],10 µg/mL
CCOC(=O)C(C)(C)Oc1ccc(C(=O)c2cc3cc(C)ccc3oc2=O)cc1,IC50,[18],8510 nM
O=C(OCc1cc(=O)oc2c(O)c(O)ccc12)c1cc(O)c(O)c(O)c1,IC50,[19],64000 nM
O=c1oc2ccc(Br)cc2cc1-c1nc2ccccc2[nH]1,inhibition in vivo at 20 mg/kg,[20],45.5%
Cc1cc(=O)oc2cc(Oc3nc(-c4ccc(B(O)O)cc4)cn4c(-c5ccc(B(O)O)cc5)cnc34)ccc12,inhibition of growth at 10 µM,[21],90.1%
O=C(c1ccc(O)cc1)C(c1c(O)c2ccccc2oc1=O)N1CCCCC1 (stereo not given),IC50,[22],500000 nM
same,IC50,[23],29400 nM
same,IC50,[24],234 µg/mL
same,IC50,[25],> 1000 µg/mL
Cc1cc(C)cc(-n2c(-c3cc4ccccc4oc3=O)cs/c2=N/NC(=O)c2cc3ccccc3oc2=O)c1,"inhibition at 48 h, 100 µM",[26],66.8%
same,"inhibition at 48 h, 10 µM",[27],64.2%
same,"inhibition at 48 h, 0.1 µM",[28],55.5%
same,"inhibition at 48 h, 1 µM",[29],59.4%
COc1ccccc1N1C(=O)/C(=C/c2ccc(F)cc2)S/C1=N\NC(=O)c1cc2ccccc2oc1=O,IC50,[30],380 nM
C/C(=N\Nc1nc(-c2cc3ccccc3oc2=O)cs1)c1ccccc1Br,IC50,[15],160 nM
same,IC50,[16],34700 nM
C[C@@H]1[C@H](O)[C@@H](C)/C=C/C=C/C=C/C=C/C=C/C=C/C=C/[C@H](O[C@@H]2O[C@H](C)[C@@H](O)[C@H](N)[C@@H]2O)C[C@@H]2O[C@](O)(C[C@@H](O)C[C@@H](O)[C@H](O)CC[C@@H](O)C[C@@H](O)CC(=O)O[C@H]1C)C[C@H](O)[C@H]2C(=O)O [AMPHOTERICIN B],inhibition at 100 µM,[3],79.8%
same,inhibition at 1 µM,[4],74.8%
same,inhibition at 0.1 µM,[5],69.9%
same,inhibition at 10 µM,[6],76.3%
Nc1cc(Cl)ccc1/C(=N/Nc1nc(-c2cc3ccccc3oc2=O)cs1)c1ccccc1,IC50,[15],459 nM
Cc1ccc(-n2c(-c3cc4ccccc4oc3=O)cs/c2=N/NC(=O)c2cc3ccccc3oc2=O)c(C)c1,IC50,[31],1380 nM
O=C(Cc1cc(=O)oc2cc(O)ccc12)NCCCCCCCNc1c2c(nc3ccccc13)CCCC2,IC50,[32],63 to 63.5 nM
Cc1ccc(N2C(=O)/C(=C/c3ccc(F)cc3)S/C2=N\NC(=O)c2cc3ccccc3oc2=O)cc1,IC50,[33],110 nM
same,IC50,[30],70 nM
O=C(N/N=C/c1cc(Cl)ccc1O)c1nc(-c2cc3ccccc3oc2=O)cs1,IC50,[7],8230 nM
CCOC(=O)C(C)(C)Oc1ccc(C(=O)c2cc3cc([N+](=O)[O-])ccc3oc2=O)cc1,IC50,[18],18600 nM
O=C(/C=C/c1ccc(OCCN2CCCCC2)cc1)c1cc2ccccc2oc1=O,GI50,[34],< 10 µg/mL
same,GI50,[35],75.3 µg/mL
same,Activity,[36],3.3 mm3
O=C(Nc1nc2ccccc2[nH]1)c1cc2ccccc2oc1=O,inhibition in vivo at 20 mg/kg,[20],42.9%
C/C(=N\Nc1nc(-c2cc3ccccc3oc2=O)cs1)c1ccc(Br)cc1,IC50,[15],110 nM
same,IC50,[16],1710 nM
O=c1oc2ccc(Cl)cc2cc1-c1nc2ccccc2[nH]1,inhibition in vivo at 20 mg/kg,[20],46.8%
Cc1ccc(-n2c(-c3cc4ccccc4oc3=O)cs/c2=N/NC(=O)c2cc3ccccc3oc2=O)cc1C,inhibition of growth at 0.1 µM,[37],45.5%
same,inhibition of growth at 1 µM,[38],53.8%
same,inhibition of growth at 100 µM,[39],65%
same,inhibition of growth at 10 µM,[40],57.3%
Cc1cc(=O)oc2cc(Oc3nc(-c4ccc(B(O)O)s4)cn4c(-c5ccc(B(O)O)s5)cnc34)ccc12,inhibition of growth at 10 µM,[41],92.3%
COc1ccc(-c2cc(-c3cc4ccccc4oc3=O)nc(Cc3ccc(F)cc3)n2)cc1,IC50,[1],16100 nM
O=C(Cc1cc(=O)oc2cc(O)ccc12)NCCCCCCCCNc1c2c(nc3ccccc13)CCCC2,inhibition,[42],82%
O=C(Cc1cc(=O)oc2cc(O)ccc12)NCCCNCCNCCCNc1c2c(nc3ccccc13)CCCC2,IC50,[43],38 nM
NC(=S)N1N=C(c2cc3ccccc3oc2=O)CC1c1ccccc1 (stereo not given),IC50,[44],358 nM
CC(C)(C)NC(=O)c1c(-c2ccccc2)nc(SCc2cc(=O)oc3ccc4ccccc4c23)[nH]c1=O,MIC,[17],2.5 µg/mL

# — ChEMBL document CHEMBL4385627, “Rational approaches, design strategies, structure activity relationship and mechanistic insights for therapeutic coumarin hybrids” (Bioorg Med Chem, 2019)
